Several values for one entry are separate records, joined by “and”; a condition that tells them apart may be missing. Identical values can stand only once.
Experiments:
C2C12 cells = assay: Differentiation and muscle protein expression of C2C12 myoblasts exposed to deacetylase inhibitors (MHC immunofluorescence, Western blot, RT-PCR, FACS); assay type: cell-based, mouse; conditions: for Nuclei/MHC-Positive Cells (number of nuclei) / percentage of nuclei detected in MHC-positive cells: C2C12, DI 24 hours in GM, then DM without DI, Tr. 1 and Tr. 2; for MHC expression and frequency of MHC-positive multinucleated cells: undifferentiated myoblasts exposed in GM, differentiated in the absence of DI, vs untreated cells
Description: Mouse muscle myoblast C2C12 cells (obtained from the American Type Culture Collection, ATCC CRL-1772) and CC42 cells (from Dr. Kenneth Walsh, Tufts University School of Medicine) were cultured in DMEM supplemented with 20% fetal bovine serum, 2 mM glutamine and 1× kanamycin (growth medium, GM). Cellular differentiation was induced with DMEM supplemented with 2% horse serum and 1× insulin, transferring, selenium (Life Technologies). Human skeletal myocytes (CC-2561) were purchased from Clonetics. Stable C2C12 cell lines with integrated reporters are described in Wu, Z., et al., Mol Cell Biol 20:3951-64 (2000). The MCK-luc, 4RE-luc, MEF2 reporter constructs have been described in Puri, P. L., et al., EMBO Journal 16:369-83 (1997a) and Sartorelli, V., et al., Molecular & Cellular Biology 17:1010-26 (1997). The E2F-luc plasmid is described in Helin, K., et al., Genes Dev 7:1850-61 (1993). The MLC-lacZ-nls plasmid is described in Wu, et al. (2000). Dr. Stuart Schreiber (Harvard University) provided the vector expressing Flag-HDAC1, which is described in Taunton, J., et al., Science 272: 408-11 (1996). Transient transfections were performed using FuGENE 6 transfection reagent (Roche Molecular Biochemicals). Following transfections, luciferase activity was determined using the Dual-Luciferase reporter assay system (Promega) on a microtiter luminescence detection system (MLX, Dynex).
For immunoblotting, cell extracts were obtained after incubating the cells in standard lysis buffer. Western blots were probed with the following antibodies: anti-MHC (MF-20), anti-myogenin (FD5), and anti-tubulin (E7), obtained from the Developmental Studies Hybridoma Bank, University of Iowa. Primary antibodies were visualized with the ECL cheminoluminescent kit (Amersham). Cells were fixed and stained with anti-MHC MF-20 antibodies. Nuclei were visualized by 4′,6′-[…]-2-phenylindole (DAPI). FITC-conjugated or Texas red-conjugated secondary antibodies were employed to reveal the primary antibodies.
C2C12 and CC42 cells were exposed to sodium butyrate 5 mM (Sigma), trichostatin A 50 nM (Upstate Biotechnologies), or valproic acid 10 mM (Sigma) for 24 hours in GM (GM regimen). TSA was removed and the cells cultured in DM for 48 hrs before being analyzed. When indicated (DM regimen), the cells were exposed to deacetylase inhibitors when switched from GM to DM and cultured in their presence for 48 hrs.
Another striking effect induced by DI is their ability to increase the number of nuclei present in MHC positive cells. While approximately 15% of the total nuclei are present in elongated, MHC-positive myotubes not exposed to DI, approximately 75-80% of the total nuclei are detected in hypernucleated MHC-positive myotubes when these have been previously exposed to DI (see FIG. 1D and Table 1). In Table 1, C2C12 cells were either exposed to sodium butyrate, TSA, VPA or left untreated for 24 hours in GM. The medium was replaced with DM without DI, and MHC expression was detected by immunofluorescent staining. Nuclei were visualized with DAPI. The values in parenthesis indicate the percentage of nuclei detected in MHC-positive cells. The values are derived from two independent trials.

mouse embryos = assay: Embryos of pregnant MLC1/3F-nLacZ mice exposed in utero (somitogenesis, muscle gene expression); assay type: in vivo
Description: MLC1/3F-nLacZ pregnant mice (E 8.5) received intra peritoneal injection of 15 μg of TSA (WAKO chemicals, Neuss Germany) or VPA (Sigma) at E 8.5 and E 9.5 as described in Faiella, A., et al., Hum Mol Genet 9:227-36 (2000), and Nervi, C., et al., Cancer Res 61:1247-9 (2001). VPA was dissolved in distilled water and administered at doses of 6 mg/mice (about 150 μg/ml) every 12 h at E 8.5, E 9, E 9.5, E 10 as described in Faiella et al. (2000). […] Mice were sacrificed at E 10.5, and the embryos were observed under a dissecting stereo-microscope to evaluate their viability, presence of external malformations, and number of somites. Embryos were fixed in 4% paraformaldehyde for histology and X-Gal staining or immunocytochemistry using antibodies against MyoD and myosin heavy chains as described in Tajbakhsh, S., et al., Neuron 13:813-21 (1994).
DI was administered intraperitoneally to pregnant mice (at a concentration of 0.5 to 1 mg/Kg for TSA and 200 mg/Kg for VPA) at post-implantation stages of E 8.5, and the pregnant mice were sacrificed at 10.5, when MyoD expression is clearly detectable in the myotomes. […] In Table 2, Somites of MLC1/3F-nLacZ mice (injected at day 8.5 and sacrificed at day 10.5) were scored after staining the embryos to detect β-galactosidase activity.

MLC3F-lacZ-nls construct = assay: β-Galactosidase assay of cells transfected with MLC3F-lacZ-nls; assay type: cell-based, mouse; conditions: transfected cells exposed in GM, then DM 48 hours; vs non-treated cells
Description: FIGS. 4A-C illustrate that embryos exposed to DI display enhanced somitogenesis and increased muscle gene expression. […] Cells were then exposed to TSA (50 nM) in GM and subsequently switched to DM for 48 hours. Cells were stained to detect β-galactosidase activity. FIG. 4B is a picture of E 10.5 embryos derived from MLC1/3F-nLacZ transgenic mice exposed to either TSA or VPA treatment (see Example 1) and stained for 1 hour at 30° C. to detect β-galactosidase activity. […] FIG. 4C is a Western blot of extracts derived from total embryos exposed to either TSA or VPA; MHC is detected.
Cells transfected with MLC-lacZ-nls were washed twice in PBS, fixed in 4% paraformaldeheyde-PBS for 5 min, washed twice in PBS, and stained for 2-5 hrs with 5 mM potassium ferrycyanide, 5 mM potassium ferrocyanide, 2 mM MgCl2, 1 mg/ml X-gal (5-bromo-4-chloro-3-indolyl-β-D-galactoside).

[1] = i.p. to pregnant mice at E 8.5, sacrificed at 10.5, 0.5 to 1 mg/Kg TSA, 200 mg/Kg VPA

SMILES	Nuclei/MHC-Positive Cells (number of nuclei) (C2C12 cells)	percentage of nuclei detected in MHC-positive cells (C2C12 cells)	expression of myogenin and MHC, differentiation (C2C12 cells; C2C12 treated when cultured in DM, 48 hours)	apoptosis (reduced cell density) (C2C12 cells; cells exposed in DM)	MHC expression and frequency of MHC-positive multinucleated cells (C2C12 cells)	level of MLC-lacZ transgene expression (mouse embryos; E 10.5 embryos, vs control embryos)	# somites (β-galactosidase staining) (mouse embryos; MLC1/3F-nLacZ mice injected at day 8.5, sacrificed at day 10.5, TSA [1 mg/ml] (20 ul + 380 ul PBS), VPA 155 mM, one value per embryo, PBS controls 25-32)	levels of MHC in exposed embryos (Western blot) (mouse embryos; extracts of total embryos)	number of MLC expressing somites (mouse embryos; [1])	number of MyoD expressing myotomes (mouse embryos; [1])	β-galactosidase-positive nuclei (MLC3F-lacZ-nls construct)
CCCC(=O)[O-].[Na+] [Sodium Butyrate, sodium butyrate]	230 and 210	83% and 84%	failed to activate expression of both myogenin and the myosin heavy chain (MHC) and to properly differentiate	high frequency of apoptosis	upregulated MHC expression and displayed a striking increased frequency of larger MHC-positive multinucleated cells	–	–	–	–	–	–
CCCC(CCC)C(=O)O [VPA, valproic acid]	153 and 187	81% and 78%	–	–	effects undistinguishable from those exerted by sodium butyrate	higher level of MLC-lacZ transgene expression	35 and 36 and 33 and 34	augmented the levels of MHC	consistently increased	consistently increased	increased β-galactosidase-positive nuclei

Reference: patent US7795208B2, “Methods of using deacetylase inhibitors to promote cell differentiation and regeneration” (The Salk Institute for Biological Study, priority 2001, dated 2010)
